Molecular target: T1, human GR (Homo sapiens, UniProt P04150)
T1 sequence (P04150 1-777): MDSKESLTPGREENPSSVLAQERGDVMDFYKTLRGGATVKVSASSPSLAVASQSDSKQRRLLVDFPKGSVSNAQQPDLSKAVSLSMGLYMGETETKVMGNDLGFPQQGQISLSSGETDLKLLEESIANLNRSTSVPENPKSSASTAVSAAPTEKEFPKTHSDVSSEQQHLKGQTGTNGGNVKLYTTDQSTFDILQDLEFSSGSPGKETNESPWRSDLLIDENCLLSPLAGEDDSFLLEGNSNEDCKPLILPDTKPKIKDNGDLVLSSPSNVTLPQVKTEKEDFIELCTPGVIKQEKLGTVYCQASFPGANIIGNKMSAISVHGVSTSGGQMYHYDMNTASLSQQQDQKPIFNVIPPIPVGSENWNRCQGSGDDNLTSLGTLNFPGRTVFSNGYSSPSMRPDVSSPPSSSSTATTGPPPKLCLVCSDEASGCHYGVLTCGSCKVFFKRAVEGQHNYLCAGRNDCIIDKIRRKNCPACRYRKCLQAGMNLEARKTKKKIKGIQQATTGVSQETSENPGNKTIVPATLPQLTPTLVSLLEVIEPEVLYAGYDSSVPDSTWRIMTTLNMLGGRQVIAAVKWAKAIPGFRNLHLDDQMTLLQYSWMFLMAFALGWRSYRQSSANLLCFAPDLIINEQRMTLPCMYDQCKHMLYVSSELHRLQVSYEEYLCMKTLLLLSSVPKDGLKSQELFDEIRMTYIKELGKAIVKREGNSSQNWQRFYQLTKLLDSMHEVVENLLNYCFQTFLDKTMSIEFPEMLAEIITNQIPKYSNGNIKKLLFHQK
Test: Transrepression Assay (GITAR), TNFα-β-lactamase reporter gene in U937 cells
Format: cell-based
Parameters: U937 cells contain an endogenous glucocorticoid receptor (GR); endogenous in cells; host or cells: U937 cells stably transfected with the TNF-α promoter/β-lactamase reporter only
Settings: U-937; 100 nM dexamethasone = 100% activity; read-out: maximal activity in the transrepression assay
From the text: Transrepression Assay (GITAR)
This assay assesses the ability of test compounds to control transcription from the TNFα-β-lactamase reporter gene in U937 cells, a human myelomonocytic leukemia cell line that naturally expresses the human GR. The assay measures compound dependent-repression of the TNFa promoter linked to a reporter gene.
The human U937 cells that had been stably transfected with the TNF-α promoter driving β-lactamase are used for this assay. U937 cells contain an endogenous glucocorticoid receptor (GR). […] 50,000 cells/well are plated in 96 well black-walled plates the day of assay. Test compounds are added 10 μL/well, and cells are incubated at 37° C. for 30˜45 min. For assaying compounds, first dilute 1:10 in DMSO to make 1 mM, then further dilute 1:100 in medium to make 10× stock prior to adding to the cells. Add 50 ng/ml PMA (Sigma, cat# P8139) 10 μL/well to a final concentration 5 ng/ml, and 1 μg/ml LPS (Sigma, cat# L4130) 10 μL/well to a final concentration 100 ng/ml. Incubate cells at 370 C overnight for ˜18 hr. PMA is stored frozen as 100 μg/ml stock in DMSO. Dilute 1:10 in DMSO for a working stock of 10 μg/ml and store at −20 C. For assaying, dilute the 10 μg/ml working stock 1:200 in medium to make a 10× solution (50 ng/ml). Store frozen LPS at 1 mg/ml in PBS, dilute 1:1000 in medium to make 10× (1 μg/ml) for the assay. Add 6× loading buffer (CCF2-AM) 20 μL/well, and incubate at room temperature for 70˜90 min. […] The activity repressed by 100 nM dexamethasone alone is set as 100% activity.

Structure (SMILES)	Emax
CCNC(=O)C(C)(C)NC(=O)c1ccccc1CC[C@]1(O)CCC2=Cc3c(cnn3-c3ccc(F)cc3)C[C@@]21C [Example 71, N-[2-(ethylamino)-1,1-dimethyl-2-oxoethyl]-2-{2-[(4αS,5R)-1-(4-fluorophenyl)-5-hydroxy-4α-methyl-1,4,4α,5,6,7-hexahydrocyclopenta[f]indazol-5-yl]ethyl}benzamide]	5 to 100%
COC(=O)[C@@H](C)NC(=O)c1ccccc1CC[C@]1(O)CCC2=Cc3c(cnn3-c3ccc(F)cc3)C[C@@]21C [Example 72, methyl N-(2-{2-[(4αS,5R)-1-(4-fluorophenyl)-5-hydroxy-4α-methyl-1,4,4α,5,6,7-hexahydrocyclopenta[f]indazol-5-yl]ethyl}benzoyl)-D-alaninate]	5 to 100%
CC1CN1C(=O)c1ccccc1CC[C@]1(O)CCC2=Cc3c(cnn3-c3ccc(F)cc3)C[C@@]21C (stereo partly drawn) [Example 73, (4αS,5R)-1-(4-fluorophenyl)-4α-methyl-5-(2-{2-[(2-methylaziridin-1-yl)carbonyl]phenyl}ethyl)-1,4,4α,5,6,7-hexahydrocyclopenta[f]indazol-5-ol]	5 to 100%
C[C@]12Cc3cnn(-c4ccc(F)cc4)c3C=C1CC[C@@]2(O)CCc1ccccc1C(=O)N1CCC(F)(F)C1 [Example 74, (4αS,5R)-5-(2-{2-[(3,3-difluoropyrrolidin-1-yl)carbonyl]phenyl}ethyl)-1-(4-fluorophenyl)-4α-methyl-1,4,4α,5,6,7-hexahydrocyclopenta[f]indazol-5-ol]	5 to 100%
CNC(=O)C(C)(C)NC(=O)c1ccccc1CC[C@]1(O)CCC2=Cc3c(cnn3-c3ccc(F)cc3)C[C@@]21C [Example 75, N-[1,1-dimethyl-2-(methylamino)-2-oxoethyl]-2-{2-[(4αS,5R)-1-(4-fluorophenyl)-5-hydroxy-4α-methyl-1,4,4α,5,6,7-hexahydrocyclopenta[f]indazol-5-yl]ethyl}benzamide]	5 to 100%
C[C@]12Cc3cnn(-c4ccc(F)cc4)c3C=C1CC[C@@]2(O)CCc1cccc(F)c1C(=O)N1CCCC(F)(F)C1 [Example 76, (4αS,5R)-5-(2-{2-[(3,3-difluoropiperidin-1-yl)carbonyl]-3-fluorophenyl}ethyl)-1-(4-fluorophenyl)-4α-methyl-1,4,4α,5,6,7-hexahydrocyclopenta[f]indazol-5-ol]	5 to 100%
C[C@]12Cc3cnn(-c4ccc(F)cc4)c3C=C1CC[C@@]2(O)CCc1cccc(F)c1C(=O)N1CCC(F)(F)C1 [Example 77, (4αS,5R)-5-(2-{2-[(3,3-difluoropyrrolidin-1-yl)carbonyl]-3-fluorophenyl}ethyl)-1-(4-fluorophenyl)-4α-methyl-1,4,4α,5,6,7-hexahydrocyclopenta[f]indazol-5-ol]	5 to 100%
C[C@]12Cc3cnn(-c4ccc(F)cc4)c3C=C1CC[C@@]2(O)CCc1cccc(F)c1CNS(=O)(=O)c1ccccc1 [Example 78, N-(2-fluoro-6-{2-[(4αS,5R)-1-(4-fluorophenyl)-5-hydroxy-4α-methyl-1,4,4α,5,6,7-hexahydrocyclopenta[f]indazol-5-yl]ethyl}benzyl)benzenesulfonamide]	5 to 100%
C[C@]12Cc3cnn(-c4ccc(F)cc4)c3C=C1CC[C@@]2(O)CCc1cccc(F)c1CNS(=O)(=O)c1ccc(F)cc1F [Example 79, 2,4-difluoro-N-(2-fluoro-6-{2-[(4αS,5R)-1-(4-fluorophenyl)-5-hydroxy-4α-methyl-1,4,4α,5,6,7-hexahydrocyclopenta[f]indazol-5-yl]ethyl}benzyl)benzenesulfonamide]	5 to 100%
C[C@]12Cc3cnn(-c4ccc(F)cc4)c3C=C1CC[C@@]2(O)CCc1cccc(F)c1CNS(=O)(=O)c1ccccc1F [Example 80, 2-fluoro-N-(2-fluoro-6-{2-[(4αS,5R)-1-(4-fluorophenyl)-5-hydroxy-4α-methyl-1,4,4α,5,6,7-hexahydrocyclopenta[f]indazol-5-yl]ethyl}benzyl)benzenesulfonamide]	5 to 100%

The next lines start with the values.

Emax	Structure (SMILES)
5 to 100%	C[C@]12Cc3cnn(-c4ccc(F)cc4)c3C=C1CC[C@@]2(O)CCc1cccc(F)c1CNS(=O)(=O)c1cccc(C#N)c1 [Example 81, 3-cyano-N-(2-fluoro-6-{2-[(4αS,5R)-1-(4-fluorophenyl)-5-hydroxy-4α-methyl-1,4,4α,5,6,7-hexahydrocyclopenta[f]indazol-5-yl]ethyl}benzyl)benzenesulfonamide]
5 to 100%	C[C@]12Cc3cnn(-c4ccc(F)cc4)c3C=C1CC[C@@]2(O)CCc1cccc(F)c1CNS(=O)(=O)c1cccnc1 [Example 82, N-(2-fluoro-6-{2-[(4αS,5R)-1-(4-fluorophenyl)-5-hydroxy-4α-methyl-1,4,4α,5,6,7-hexahydrocyclopenta[f]indazol-5-yl]ethyl}benzyl)pyridine-3-sulfonamide]
5 to 100%	C[C@]12Cc3cnn(-c4ccc(F)cc4)c3C=C1CC[C@@]2(O)CCc1ccccc1CNS(C)(=O)=O [Example 87, N-(2-{2-[(4αS,5R)-1-(4-fluorophenyl)-5-hydroxy-4α-methyl-1,4,4α,5,6,7-hexahydrocyclopenta[f]indazol-5-yl]ethyl}benzyl)methanesulfonamide]
5 to 100%	C[C@]12Cc3cnn(-c4ccc(F)cc4)c3C=C1CC[C@@]2(O)CCc1ccccc1CNS(=O)(=O)CC(F)(F)F [Example 90, 2,2,2-trifluoro-N-(2-{2-[(4αS,5R)-1-(4-fluorophenyl)-5-hydroxy-4α-methyl-1,4,4α,5,6,7-hexahydrocyclopenta[f]indazol-5-yl]ethyl}benzyl)ethanesulfonamide]
5 to 100%	C[C@]12Cc3cnn(-c4ccc(F)cc4)c3C=C1CC[C@@]2(O)CCc1cccc(F)c1CNS(=O)(=O)c1ccco1 [Example 92, N-(2-fluoro-6-{2-[(4αS,5R)-1-(4-fluorophenyl)-5-hydroxy-4α-methyl-1,4,4α,5,6,7-hexahydrocyclopenta[f]indazol-5-yl]ethyl}benzyl)furan-2-sulfonamide]
5 to 100%	Cn1cnc(S(=O)(=O)NCc2c(F)cccc2CC[C@]2(O)CCC3=Cc4c(cnn4-c4ccc(F)cc4)C[C@@]32C)c1 [Example 93, N-(2-fluoro-6-{2-[(4αS,5R)-1-(4-fluorophenyl)-5-hydroxy-4α-methyl-1,4,4α,5,6,7-hexahydrocyclopenta[f]indazol-5-yl]ethyl}benzyl)-1-methyl-1H-imidazole-4-sulfonamide]
5 to 100%	C[C@]12Cc3cnn(-c4ccc(F)cc4)c3C=C1CC[C@@]2(O)CCc1cccc(F)c1CNS(=O)(=O)c1ccccc1C#N [Example 94, 2-cyano-N-(2-fluoro-6-{2-[(4αS,5R)-1-(4-fluorophenyl)-5-hydroxy-4α-methyl-1,4,4α,5,6,7-hexahydrocyclopenta[f]indazol-5-yl]ethyl}benzyl)benzenesulfonamide]
5 to 100%	C[C@H](NS(=O)(=O)C1CC1)c1ccccc1CC[C@]1(O)CCC2=Cc3c(cnn3-c3ccc(F)cc3)C[C@@]21C [Example 95, N-[(1S)-1-(2-{2-[(4αS,5R)-1-(4-fluorophenyl)-5-hydroxy-4α-methyl-1,4,4α,5,6,7-hexahydrocyclopenta[f]indazol-5-yl]ethyl}phenyl)ethyl]cyclopropanesulfonamide]
5 to 100%	C[C@@H](NS(=O)(=O)CC(F)(F)F)c1c(F)cccc1CC[C@]1(O)CCC2=Cc3c(cnn3-c3ccc(F)cc3)C[C@@]21C [Example 96, 2,2,2-trifluoro-N-[(1R)-1-(2-fluoro-6-{2-[(4αS,5R)-1-(4-fluorophenyl)-5-hydroxy-4α-methyl-1,4,4α,5,6,7-hexahydrocyclopenta[f]indazol-5-yl]ethyl}phenyl)ethyl]ethanesulfonamide]
